Source: patent US10413541B2, “Oxabicycloheptanes and oxabicycloheptenes for the treatment of depressive and stress disorders” (LIXTE BIOTECHNOLOGY, INC., priority 2015, dated 2019)

Legend:
LHb neurons [1] = assay: Current-clamp excitability (evoked action potentials, input-output curve) of LHb neurons in slices; type: cell-based, mice; conditions: LB100 0.1 μM in the bath
Protocol: Animals were anesthetized with Ketamine/Xylazine (50 mg/10 mg Kg-1 i.p.; Sigma-Aldrich, France). The preparation of LHb-containing brain slices was done in bubbled ice-cold 95% O2/5% CO2-equilibrated solution containing (in mM): cholineCl 110; glucose 25; NaHCO3 25; MgCl2 7; ascorbic acid 11.6; Na+-pyruvate 3.1; KCl 2.5; NaH2PO4 1.25; CaCl2 0.5. Sagittal slices (250 μm) were stored at room temperature in 95% O2/5% CO2-equilibrated artificial cerebrospinal fluid (ACSF) containing (in mM): NaCl 124; NaHCO3 26.2; glucose 11; KCl 2.5; CaCl2 2.5; MgCl2 1.3; NaH2PO4 1. Recordings (flow rate of 2.5 ml/min) were made under an Olympus-BX51 microscope (Olympus, France) at 32° C. Currents were amplified, filtered at 5 kHz and digitized at 20 kHz. Access resistance was monitored by a step of −4 mV (0.1 Hz). Experiments were discarded if the access resistance increased more than 20%.
The internal solution to measure GABAB-GIRK currents and neuronal excitability contained 140 mM potassium gluconate, 4 mM NaCl, 2 mM MgCl2, 1.1 mM EGTA, 5 mM HEPES, 2 mM Na2ATP, 5 mM sodium creatine phosphate, and 0.6 mM Na3GTP (pH 7.3), with KOH. When we measured the synaptic inhibitory or excitatory release the internal solution contained (in mM): CsCl 130; NaCl 4; MgCl2 2; EGTA 1.1; HEPES 5; Na2ATP 2; Na+-creatine-phosphate 5; Na3GTP 0.6, and spermine 0.1. The liquid junction potential was −3 mV. For cell-attached recordings the internal solution consisted in ACSF.
(§1) For the Okadaic acid (OA) and the CaMKII inhibitor KN93 experiments, respectively 100 nM of OA or 10 μM of KN93 were added in the internal solution. For the PP2A inhibitor LB100 experiments, LB100 (0.1 μM) was applied in the bath. Miniature excitatory postsynaptic currents (mEPSCs) were recorded in voltage-clamp mode at −60 mV in presence of bicuculine (10 μM) and TTX (1 μM). Miniature inhibitory postsynaptic currents (mIPSCs) were recorded (−60 mV) in presence of NBQX (20 μM) and TTX (1 μM). EPSCs and IPSCs were evoked through an ACSF filled monopolar glass electrode placed 200 μm from the recording site in the stria medullaris. AMPA:NMDA ratios of evoked-EPSC were obtained by AMPA-EPSC −60 mV/NMDA-EPSCs at +40 mV. Rectification Index (RI) was computed by […]-60/AMPA-EPSC+40. For the experiments in which high-frequency stimulation trains were used to determine presynaptic release probability, QX314 (5 mM) was included in the internal solution to prevent the generation of sodium spikes. Current-clamp experiments, were performed by a series of current steps (negative to positive) injected to induce action potentials (5-10 pA injection current per step, 800 ms).

LHb neurons [2] = assay: In vivo LB100 treatment after FsE, LHb neuronal excitability (input-output curve) in slices; set-up: species or system mice; conditions: LB100 1.5 mg/kg ip 6-8 h after FsE
Protocol: The inescapable shock procedure was previously described in Stamatakis and Stuber 2012. Briefly, we placed mice into standard mouse behavioral chambers (Imetronics) equipped with a metal grid floor. We let them to habituate at the new environment for 5 m. In a 20 m session animals received either 19 or 0 unpredictable foot shocks (1 mA, 500 ms) with an interstimulus interval of 30, 60 or 90 s. We anesthetized mice for patch-clamp electrophysiology 1 h, 24 h, 7 d, 14 d or 30 d after the session ended.
as §1
For LB treatment experiments, mice were injected with LB (1.5 mg/Kg i.p.) or saline 6-8 hours after the FsE. The effects of the treatment on the LHb excitability and GABAB-GIRKs currents as well as the behavioural assay were assessed at day 1 or 7. For both electrophysiology and behaviour once treated the animal were housed in groups of 4-6 and let undisturbed until the day of the test.

Q: With `CN1CCN(C(=O)C2C(C(=O)O)[C@H]3CC[C@@H]2O3)CC1` (stereo partly drawn) [LB100] as the molecule, how does the “FsE-induced hyperexcitability of LHb neurons (input-output curve, CTRL vs FsE)” value (LHb neurons [1]) read?
A: completely abolished

Q: And the “FsE-induced hyperexcitability of LHb neurons (input-output curve, CTRL vs FsE)” value (LHb neurons [1]; listed as LB-100)?
A: comparable to control conditions

Q: And the “LHb neuronal excitability, input-output curve CTRL vs FsE” value (from here on “LHb neuronal excitability … vs FsE”) (LHb neurons [2]; 7 days after, 1.5 mg/kg)?
A: able to abolish the increase in excitability

Q: And the “LHb neuronal excitability … vs FsE” value (LHb neurons [2]; 7 days after, listed as LB-100, 1.5 mg/kg)?
A: normalized

Q: What about the “LHb neuronal excitability … vs FsE” value (LHb neurons [2]; one day after, 1.5 mg/kg) of the same molecule?
A: did not show any difference

Q: What about the “LHb neuronal excitability … vs FsE” value (LHb neurons [2]; one day after, listed as LB-100, 1.5 mg/kg) of the same molecule?
A: normalized
